Data set [1] has as its target T1, COX-2 (Homo sapiens, UniProt P35354).
T1 sequence (P35354 18-604): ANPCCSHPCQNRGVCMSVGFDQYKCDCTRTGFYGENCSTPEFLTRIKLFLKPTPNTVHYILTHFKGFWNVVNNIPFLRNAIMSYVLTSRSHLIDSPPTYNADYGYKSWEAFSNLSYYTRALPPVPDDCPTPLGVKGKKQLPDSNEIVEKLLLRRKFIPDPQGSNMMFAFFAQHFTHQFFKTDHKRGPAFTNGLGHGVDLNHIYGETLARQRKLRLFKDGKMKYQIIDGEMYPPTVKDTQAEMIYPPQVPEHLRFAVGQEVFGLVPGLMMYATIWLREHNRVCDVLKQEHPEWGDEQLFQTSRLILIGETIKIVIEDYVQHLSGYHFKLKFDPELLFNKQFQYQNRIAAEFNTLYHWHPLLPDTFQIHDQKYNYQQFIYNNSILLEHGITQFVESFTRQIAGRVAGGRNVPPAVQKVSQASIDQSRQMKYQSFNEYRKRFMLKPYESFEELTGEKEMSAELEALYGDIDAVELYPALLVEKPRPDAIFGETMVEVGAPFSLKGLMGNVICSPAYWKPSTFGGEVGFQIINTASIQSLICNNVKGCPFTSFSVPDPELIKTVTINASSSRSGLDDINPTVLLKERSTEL
As to the kind of experiment: COX-2 fluorescence assay with CoxFluor (fluorimeter / plate reader). In kind it is biochemical. The arrangement: made in house. The method, then:
Fluorimeter Fluorescence Assay. The fluorescence assays were performed in microquartz cuvettes or submicroquartz cuvettes with a maximum volume of 600 μL. Reactions were monitored at room temperature using 540 nm excitation and emission was collected from 550-700 nm with a slit width of 1.25 mm. Total volumes of the reaction mixtures were maintained at 570 μL. […] Experiments in the presence of reduced GSH were conducted according to the same procedure, but GSH (30 μL, 19 mM in 100 mM Tris-HCl, pH 8.0) was added before the addition of CoxFluor for a final concentration of 1 mM. Assays performed in submicroquartz cuvettes were performed maintaining the same ratios, but with a final volume of 142.5 μL.
Plate Reader Fluorescence Assay. The fluorescence assays were performed at room temperature using 540 nm excitation and 590 nm emission. Total volume of the reaction mixture was maintained at 190 μL. […] Inhibition assays were performed according to the same procedure, but COX-2 was preincubated with hemin and inhibitor for 0.5 h at 0° C. before initiation with CoxFluor. Relative fluorescence enhancement is calculated by comparing to a buffer control with 10 μM CoxFluor.

Data set [2] deals with horseradish peroxidase, bovine catalase, porcine esterase, human CYP2J2 (with cytochrome reductase), rat liver microsomes. Nature of the data set: Enzyme selectivity panel (off-target activation). Particulars: 10-fold excess protein (1.01 U vs 0.101 U COX-2), CoxFluor 10 μM. Format: biochemical. The method, then: Enzyme Selectivity. Enzyme activity was defined as the amount substrate (μmol) consumed during one minute by one milligram of enzyme in 100 mM Tris-HCl at pH 8.0 under saturating conditions. Enzyme concentrations were measured using the BCA assay (Thermo Fisher Scientific) according to the published protocol with bovine serum albumin for the standard curve. COX-1 and COX-2 cyclooxygenase activities were measured using Strathkelvin oxygen electrode with arachidonic acid (200 μM). The oxygen electrode was calibrated using 1% sodium sulfite for 0% oxygen and atmosphere equilibrated 100 mM Tris-HCl at pH 8.0 for 100% oxygen. The reaction was monitored at 37° C. in a glass chamber with a total reaction volume of 1 mL. […]
Porcine esterase activity was measured spectroscopically at 405 nm using p-nitrophenyl acetate (1.5 mM) as the substrate. Bovine catalase activity was measured using a discontinuous Amplex® Red-horseradish peroxidase assay to quantify the amount of hydrogen peroxide (initially 31.25 μM) remaining after 0.5 h incubation with excitation at 540 nm and emission at 590 nm. CYP2J2 activity was measured spectroscopically at 340 nm using […] (3-fold excess), NADPH (1 mM), and arachidonic acid (70 μM) as the substrate. […]
Selectivity was assessed using 10-fold excess protein (350 μg/mL) and the solution was brought to a pH of 8.0 after 4 h with 0.5 M aq. […]

The subject of data set [3] is COX-2 activity in HEK 293T cells over-expressing human COX-2. As to the kind of experiment: Confocal live-cell imaging of human COX-2 transfected HEK 293T cells. Format: cell-based. Conditions: CoxFluor 10 μM.
Experimental: Prior to plating onto 4-well chambered cover glasses, the surface exposed substrate was coated with R&D Systems™ Cultrex Poly-L-Lysine (Fisher Scientific) according to the manufacturers protocol (allowed to dry>3 h). […] Transfections was performed using Lipofectamine 3000 (Thermo Fisher Scientific) according to the manufacturer's protocol. […] Media was removed from each well and replaced with 500 μL Opti-MEM™ Reduced Serum Media followed by the addition of 20 μL transfection master mix.
Transfections were performed using the Lipofectamine 3000 reagent according to the aforementioned protocol. Control wells were treated the same as the transfected wells without the addition of the transfection master mix. […] Each well was imaged using a Zeiss LSM 700 confocal microscope (n=3 technical replicates; n=4 biological replicates). For GSH knockdown experiments, the initial media change was performed with 1 mM NEM (0.1% DMSO final concentration) in serum-free DMEM media and the cells were allowed to incubate for 30 minutes before proceeding to the staining with CoxFluor. […] All images were processed using identical parameters and false colored (LUT: jet.lut) in ImageJ.

Where only a bound is given, the exact number is not on record here.

Regarding `CCCCC/C=C\C/C=C\C/C=C\C/C=C\CCCC(=O)N1c2ccc(O)cc2Oc2cc(O)ccc21` [CoxFluor], the “measured rate for turnover relative to natural substrate cyclooxygenase activity” value in data set [1] is on record as not above 100 fold. The molecule further came in with a fluorescent turn-on response in data set [1] (CoxFluor 10 μM, COX-2 250 nM, hemin 1 μM, 4 h, room temperature, 100 mM Tris HCl pH 8.0) of 41 fold. The “COX-2-specific fluorescence enhancement in the presence of glutathione” value in data set [1] (glutathione 1 mM, COX-2 250 nM) is listed as “maintained significant COX-2-specific fluorescence enhancements”. In data set [2], the “selectivity against tested enzymes” value is on record as “good selectivity”. Moreover, the “fluorescence increase for transfected cells compared to the control” value in data set [3] (3 h, N-ethylmaleimide glutathione depletion) was 1.2 fold. The “fluorescence enhancement for the control relative to indomethacin-treated transfected cells” value in data set [3] (4.5 h) is given as 1.2 fold.

Source of the values: patent US12053533B2, “Fluorescent probe for cyclooxygenase-2” (The Board of Trustees of the University of Illinois, priority 2020, dated 2024).
